Legend:
Sirt1 = target: T1, Sirt1 (Mus musculus, UniProt Q923E4); experiment: gel-filtration (spin column) binding with [γ-32P]ATP; also ATP-agarose pull-down with free ATP competition, and enzyme inhibition
T1 construct: full-length recombinant Sirt1
T1 sequence (Q923E4 2-737): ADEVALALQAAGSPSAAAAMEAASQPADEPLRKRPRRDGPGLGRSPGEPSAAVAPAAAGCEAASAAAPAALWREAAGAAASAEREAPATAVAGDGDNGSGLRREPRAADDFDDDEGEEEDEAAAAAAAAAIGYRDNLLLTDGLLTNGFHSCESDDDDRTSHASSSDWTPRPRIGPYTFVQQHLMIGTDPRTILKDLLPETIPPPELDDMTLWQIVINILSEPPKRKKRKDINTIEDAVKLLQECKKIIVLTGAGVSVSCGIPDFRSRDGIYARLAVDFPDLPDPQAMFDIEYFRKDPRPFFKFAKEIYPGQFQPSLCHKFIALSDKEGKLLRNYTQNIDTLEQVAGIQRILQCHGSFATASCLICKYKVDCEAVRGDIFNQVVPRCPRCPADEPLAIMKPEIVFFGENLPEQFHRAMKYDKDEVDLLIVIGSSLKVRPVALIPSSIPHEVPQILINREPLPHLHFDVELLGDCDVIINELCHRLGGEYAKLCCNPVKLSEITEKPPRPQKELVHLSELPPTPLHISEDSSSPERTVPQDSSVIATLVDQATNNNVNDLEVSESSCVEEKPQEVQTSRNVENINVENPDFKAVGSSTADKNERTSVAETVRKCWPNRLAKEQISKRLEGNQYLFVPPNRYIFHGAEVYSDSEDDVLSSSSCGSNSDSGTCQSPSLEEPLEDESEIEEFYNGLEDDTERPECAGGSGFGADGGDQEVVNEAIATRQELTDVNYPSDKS

2A Sirt1 = target: T2, 2A Sirt1 (Mus musculus, UniProt Q923E4, S649A/S651A); experiment: deacetylation of [3H]Ac-H4, inhibition kinetics (Kii); weakened ATP-agarose binding; type: biochemical
T2 construct: full-length recombinant 2A Sirt1
T2 sequence (Q923E4 1-737 S649A/S651A): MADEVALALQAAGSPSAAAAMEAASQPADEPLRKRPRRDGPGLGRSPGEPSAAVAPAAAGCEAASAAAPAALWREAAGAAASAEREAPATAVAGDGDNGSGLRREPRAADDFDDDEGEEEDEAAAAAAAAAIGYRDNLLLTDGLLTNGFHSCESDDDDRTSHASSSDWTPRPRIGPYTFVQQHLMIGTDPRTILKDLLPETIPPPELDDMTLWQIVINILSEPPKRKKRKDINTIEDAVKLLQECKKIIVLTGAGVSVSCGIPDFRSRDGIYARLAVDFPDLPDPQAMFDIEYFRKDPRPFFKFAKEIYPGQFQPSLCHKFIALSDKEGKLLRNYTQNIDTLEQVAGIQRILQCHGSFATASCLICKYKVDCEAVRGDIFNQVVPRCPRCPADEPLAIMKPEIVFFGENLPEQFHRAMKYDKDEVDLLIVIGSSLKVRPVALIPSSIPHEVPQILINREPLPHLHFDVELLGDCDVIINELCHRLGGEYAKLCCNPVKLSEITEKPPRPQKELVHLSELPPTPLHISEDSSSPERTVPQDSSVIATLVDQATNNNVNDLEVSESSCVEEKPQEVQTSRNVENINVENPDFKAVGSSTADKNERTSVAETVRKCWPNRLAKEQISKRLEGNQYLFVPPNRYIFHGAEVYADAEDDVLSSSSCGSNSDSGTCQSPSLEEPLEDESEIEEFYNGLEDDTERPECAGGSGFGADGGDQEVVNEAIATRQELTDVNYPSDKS

With Nc1ncnc2c1ncn2[C@@H]1O[C@H](COP(=O)(O)OP(=O)(O)OP(=O)(O)O)[C@@H](O)[C@H]1O [ATP] the Kd (Sirt1) was roughly 4.6 mM and the Ki (2A Sirt1) was 6.45 ± 0.51 mM.
